Measurements: the supplement of paper PMC10307832

Assays:
Assay in all cases: relative viability (nuclei count vs DMSO), 5 days (fraction); higher = more cells survive
NCI-H441 = system: NCI-H441
In short: (§1)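 Relative viability divides the nuclei count in treated wells by that in vehicle wells. Lung cancer cell lines were seeded in 1536-well plates, dosed by pin tool the next day, and fixed and stained after 5 days in one step with final 0.05% Triton X-100, 1% formaldehyde and 1 ug/ml Hoechst. Dosing was a single drug or a fixed anchor-drug dose plus five library-drug doses (not always all listed) in √10 steps, and values are medians of duplicate plates imaged at 4×.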

NCI-H1792 = system: NCI-H1792
In short: as §1

NCI-H1975 = system: NCI-H1975
In short: as §1

COR-L 105 = system: COR-L 105
In short: as §1

H3255 = system: H3255
In short: as §1

NCI-H2009 = system: NCI-H2009
In short: as §1

NCI-H1355 = system: NCI-H1355
In short: as §1

ABC-1 = system: ABC-1
In short: as §1

NCI-H2228 = system: NCI-H2228
In short: as §1

ChaGo-K-1 = system: ChaGo-K-1
In short: as §1

EPLC-272H = system: EPLC-272H
In short: as §1

NCI-H460 = system: NCI-H460
In short: as §1

HCC-827 = system: HCC-827
In short: as §1

NCI-H322M = system: NCI-H322M
In short: as §1

EKVX = system: EKVX
In short: as §1

NCI-H1993 = system: NCI-H1993
In short: as §1

CAL-12T = system: CAL-12T
In short: as §1

HCC-366 = system: HCC-366
In short: as §1

NCI-H2087 = system: NCI-H2087
In short: as §1

NCI-H2085 = system: NCI-H2085
In short: as §1

Q: With `Cc1csc(=NC2CCCCC2)n1/N=C/c1ccc(O)c(O)c1O` [MIM1] + CC(C)C[C@H](NC(=O)[C@H](Cc1ccccc1)NC(=O)c1cnccn1)B(O)O [Bortezomib] (partner 0.002 µM) as the compound, how does the relative viability (NCI-H441; first compound 0.2 µM) read?
A: Its relative viability is 0.593.

Q: What about the relative viability (NCI-H441; first compound 0.6325 µM) of the same compound?
A: Its relative viability is 0.418.

Q: And the relative viability (NCI-H441; first compound 2 µM)?
A: The relative viability was 0.681.

Q: What about the relative viability (NCI-H441; first compound 6.325 µM) of the same compound?
A: The relative viability was 0.521.

Q: What about the relative viability (NCI-H441; first compound 20 µM) of the same compound?
A: Its relative viability is 0.171.

Q: What about the relative viability (NCI-H1792; first compound 0.2 µM) of the same compound?
A: The relative viability was 0.852.

Q: And the relative viability (NCI-H1792; first compound 0.6325 µM)?
A: Its relative viability is 0.921.

Q: And the relative viability (NCI-H1792; first compound 2 µM)?
A: Its relative viability is 0.922.

Q: And the relative viability (NCI-H1792; first compound 6.325 µM)?
A: The relative viability was 0.452.

Q: And the relative viability (NCI-H1792; first compound 20 µM)?
A: The relative viability was 0.851.

Q: What about the relative viability (NCI-H1975; first compound 0.2 µM) of the same compound?
A: Its relative viability is 0.428.

Q: What about the relative viability (NCI-H1975; first compound 0.6325 µM) of the same compound?
A: Its relative viability is 0.381.

Q: What about the relative viability (NCI-H1975; first compound 2 µM) of the same compound?
A: Its relative viability is 0.377.

Q: And the relative viability (NCI-H1975; first compound 6.325 µM)?
A: Its relative viability is 0.231.

Q: And the relative viability (NCI-H1975; first compound 20 µM)?
A: The relative viability was 0.221.

Q: What about the relative viability (COR-L 105; first compound 0.2 µM) of the same compound?
A: Its relative viability is 0.789.

Q: What about the relative viability (COR-L 105; first compound 0.6325 µM) of the same compound?
A: The relative viability was 0.82.

Q: And the relative viability (COR-L 105; first compound 2 µM)?
A: Its relative viability is 0.719.

Q: What about the relative viability (COR-L 105; first compound 6.325 µM) of the same compound?
A: The relative viability was 0.54.

Q: And the relative viability (COR-L 105; first compound 20 µM)?
A: Its relative viability is 0.278.

Q: And the relative viability (H3255; first compound 0.2 µM)?
A: The relative viability was 0.861.

Q: And the relative viability (H3255; first compound 0.6325 µM)?
A: Its relative viability is 0.634.

Q: What about the relative viability (H3255; first compound 2 µM) of the same compound?
A: The relative viability was 0.666.

Q: And the relative viability (H3255; first compound 6.325 µM)?
A: Its relative viability is 0.538.

Q: What about the relative viability (H3255; first compound 20 µM) of the same compound?
A: Its relative viability is 0.24.

Q: And the relative viability (NCI-H2009; first compound 0.2 µM)?
A: Its relative viability is 1.01.

Q: And the relative viability (NCI-H2009; first compound 0.6325 µM)?
A: Its relative viability is 0.956.

Q: And the relative viability (NCI-H2009; first compound 2 µM)?
A: Its relative viability is 1.02.

Q: What about the relative viability (NCI-H2009; first compound 6.325 µM) of the same compound?
A: The relative viability was 0.529.

Q: And the relative viability (NCI-H2009; first compound 20 µM)?
A: Its relative viability is 0.106.

Q: What about the relative viability (NCI-H1355; first compound 0.2 µM) of the same compound?
A: The relative viability was 1.26.

Q: What about the relative viability (NCI-H1355; first compound 0.6325 µM) of the same compound?
A: The relative viability was 0.978.

Q: And the relative viability (NCI-H1355; first compound 2 µM)?
A: The relative viability was 1.22.

Q: What about the relative viability (NCI-H1355; first compound 6.325 µM) of the same compound?
A: Its relative viability is 0.871.

Q: And the relative viability (NCI-H1355; first compound 20 µM)?
A: Its relative viability is 0.916.

Q: And the relative viability (ABC-1; first compound 0.2 µM)?
A: The relative viability was 0.33.

Q: And the relative viability (ABC-1; first compound 0.6325 µM)?
A: Its relative viability is 0.299.

Q: And the relative viability (ABC-1; first compound 2 µM)?
A: Its relative viability is 0.298.

Q: And the relative viability (ABC-1; first compound 6.325 µM)?
A: The relative viability was 0.309.

Q: What about the relative viability (ABC-1; first compound 20 µM) of the same compound?
A: The relative viability was 0.231.

Q: What about the relative viability (NCI-H2228; first compound 0.2 µM) of the same compound?
A: The relative viability was 1.02.

Q: What about the relative viability (NCI-H2228; first compound 0.6325 µM) of the same compound?
A: The relative viability was 1.09.

Q: What about the relative viability (NCI-H2228; first compound 2 µM) of the same compound?
A: The relative viability was 1.09.

Q: What about the relative viability (NCI-H2228; first compound 6.325 µM) of the same compound?
A: Its relative viability is 0.414.

Q: And the relative viability (NCI-H2228; first compound 20 µM)?
A: The relative viability was 0.246.

Q: What about the relative viability (ChaGo-K-1; first compound 0.2 µM) of the same compound?
A: The relative viability was 1.03.

Q: What about the relative viability (ChaGo-K-1; first compound 0.6325 µM) of the same compound?
A: Its relative viability is 0.972.

Q: And the relative viability (ChaGo-K-1; first compound 2 µM)?
A: Its relative viability is 1.06.

Q: And the relative viability (ChaGo-K-1; first compound 6.325 µM)?
A: Its relative viability is 0.729.

Q: And the relative viability (ChaGo-K-1; first compound 20 µM)?
A: Its relative viability is 0.29.

Q: What about the relative viability (EPLC-272H; first compound 0.2 µM) of the same compound?
A: Its relative viability is 0.805.

Q: And the relative viability (EPLC-272H; first compound 0.6325 µM)?
A: Its relative viability is 0.796.

Q: And the relative viability (EPLC-272H; first compound 2 µM)?
A: Its relative viability is 0.588.

Q: And the relative viability (EPLC-272H; first compound 6.325 µM)?
A: The relative viability was 0.732.

Q: What about the relative viability (EPLC-272H; first compound 20 µM) of the same compound?
A: The relative viability was 0.483.

Q: And the relative viability (NCI-H460; first compound 0.2 µM)?
A: The relative viability was 1.12.

Q: What about the relative viability (NCI-H460; first compound 0.6325 µM) of the same compound?
A: Its relative viability is 1.26.

Q: And the relative viability (NCI-H460; first compound 2 µM)?
A: Its relative viability is 0.604.

Q: What about the relative viability (NCI-H460; first compound 6.325 µM) of the same compound?
A: Its relative viability is 0.467.

Q: And the relative viability (NCI-H460; first compound 20 µM)?
A: Its relative viability is 0.0328.

Q: What about the relative viability (HCC-827; first compound 0.2 µM) of the same compound?
A: Its relative viability is 1.09.

Q: And the relative viability (HCC-827; first compound 0.6325 µM)?
A: Its relative viability is 0.9.

Q: What about the relative viability (HCC-827; first compound 2 µM) of the same compound?
A: The relative viability was 1.07.

Q: And the relative viability (HCC-827; first compound 6.325 µM)?
A: Its relative viability is 0.402.

Q: And the relative viability (HCC-827; first compound 20 µM)?
A: The relative viability was 0.465.

Q: What about the relative viability (NCI-H322M; first compound 0.2 µM) of the same compound?
A: The relative viability was 1.21.

Q: And the relative viability (NCI-H322M; first compound 0.6325 µM)?
A: The relative viability was 1.2.

Q: What about the relative viability (NCI-H322M; first compound 2 µM) of the same compound?
A: The relative viability was 1.35.

Q: And the relative viability (NCI-H322M; first compound 6.325 µM)?
A: Its relative viability is 1.17.

Q: And the relative viability (NCI-H322M; first compound 20 µM)?
A: Its relative viability is 1.08.

Q: What about the relative viability (EKVX; first compound 0.2 µM) of the same compound?
A: Its relative viability is 1.03.

Q: And the relative viability (EKVX; first compound 0.6325 µM)?
A: The relative viability was 1.16.

Q: And the relative viability (EKVX; first compound 2 µM)?
A: Its relative viability is 0.991.

Q: What about the relative viability (EKVX; first compound 6.325 µM) of the same compound?
A: Its relative viability is 0.601.

Q: What about the relative viability (EKVX; first compound 20 µM) of the same compound?
A: The relative viability was 0.33.

Q: And the relative viability (NCI-H1993; first compound 0.2 µM)?
A: Its relative viability is 1.18.

Q: And the relative viability (NCI-H1993; first compound 0.6325 µM)?
A: The relative viability was 1.03.

Q: And the relative viability (NCI-H1993; first compound 2 µM)?
A: The relative viability was 1.11.

Q: And the relative viability (NCI-H1993; first compound 6.325 µM)?
A: Its relative viability is 0.774.

Q: What about the relative viability (NCI-H1993; first compound 20 µM) of the same compound?
A: Its relative viability is 0.473.

Q: And the relative viability (CAL-12T; first compound 0.2 µM)?
A: Its relative viability is 1.01.

Q: And the relative viability (CAL-12T; first compound 2 µM)?
A: The relative viability was 1.04.

Q: What about the relative viability (CAL-12T; first compound 6.325 µM) of the same compound?
A: Its relative viability is 0.867.

Q: And the relative viability (CAL-12T; first compound 20 µM)?
A: Its relative viability is 0.429.

Q: And the relative viability (HCC-366; first compound 0.2 µM)?
A: Its relative viability is 1.02.

Q: And the relative viability (HCC-366; first compound 0.6325 µM)?
A: The relative viability was 0.994.

Q: What about the relative viability (HCC-366; first compound 2 µM) of the same compound?
A: Its relative viability is 0.793.

Q: And the relative viability (HCC-366; first compound 6.325 µM)?
A: The relative viability was 0.998.

Q: What about the relative viability (HCC-366; first compound 20 µM) of the same compound?
A: The relative viability was 0.0323.

Q: And the relative viability (NCI-H2087; first compound 0.2 µM)?
A: The relative viability was 0.753.

Q: And the relative viability (NCI-H2087; first compound 0.6325 µM)?
A: Its relative viability is 0.743.

Q: What about the relative viability (NCI-H2087; first compound 2 µM) of the same compound?
A: Its relative viability is 0.666.

Q: And the relative viability (NCI-H2087; first compound 6.325 µM)?
A: Its relative viability is 0.586.

Q: What about the relative viability (NCI-H2087; first compound 20 µM) of the same compound?
A: Its relative viability is 0.498.

Q: And the relative viability (NCI-H2085; first compound 0.2 µM)?
A: The relative viability was 1.08.

Q: And the relative viability (NCI-H2085; first compound 0.6325 µM)?
A: The relative viability was 0.994.

Q: And the relative viability (NCI-H2085; first compound 2 µM)?
A: Its relative viability is 0.986.

Q: And the relative viability (NCI-H2085; first compound 6.325 µM)?
A: The relative viability was 0.952.

Q: And the relative viability (NCI-H2085; first compound 20 µM)?
A: Its relative viability is 0.989.
